Assay results published in paper PMC4552634, “A New Set of Chemical Starting Points with Plasmodium falciparum Transmission-Blocking Potential for Antimalarial Drug Discovery” (PLoS ONE, 2015).
Several values for one entry are separate records, joined by “and”; a condition that tells them apart may be missing. Equal entries are not always repeated. Where two headings read alike, the source gives them in different places.

Legend:
[1] = tested on: P. falciparum stage V gametocytes; test: Gametocytocidal ATP bioluminescence assay (single point 5 μM and 1 μM, dose-response); assay type: cell-based, Plasmodium falciparum; settings: for Ratio IC50 HepG2/IC50 P. falciparum: IC50 HepG2 divided by IC50 P. falciparum gametocytes
Experimental: Purified stage IV-V gametocytes were obtained as previously described [10]. Single point ATP bioluminescence assay and dose–response of positive hits was determined in accordance with the previously published protocol [10].

HepG2 cells = test: Cytotoxicity in HepG2 cells (intracellular ATP, ATPlite, 48 h); assay type: cell-based, human; settings: HepG2 cells; IC50 per ratio column head; unit inferred
[2] = tested on: P. falciparum asexual stages; settings: asexual stages; TCAMS data; read-out: IC50 asexual; cited from earlier work
[3] = P. falciparum gametocytes, average, read-out: IC50 Pf Gametocytes average, IC50 (µM) average
[4] = sexual stages (gametocytes), dose-response, read-out: IC50 sexual

Row | SMILES | Ratio IC50 HepG2/IC50 P. falciparum [1] | IC50 [1, 3] | IC50 (HepG2 cells) | IC50 [2] | IC50 [1, 4]
1 | Cc1ccc(C)c(NC(=O)CC2C(=O)N(c3ccccc3)C(=S)N2Cc2ccco2)c1 (centres unmarked) [TCMDC-124000] | >7.7 | 1.3 µM | > 10000 nM | 570 nM | 
2 | CCCCCCCn1c(=N)n(CC(O)c2ccc(Cl)c(Cl)c2)c2ccccc21 (centres unmarked) [TCMDC-124065] | 3 | 2.02 µM | 6000 nM | 782 nM | 
3 | CCCCOc1ccc(C(=O)C(CCC(CNC(C)(C)C)C(=O)c2ccc(OCCCC)cc2)CNC(C)(C)C)cc1 (centres unmarked) [TCMDC-124120] | 10 | 0.3 µM | 3100 nM | 1020 nM | 
4 | CCCCCOc1ccc(C(O)C(CCC(CN2CCCCCC2)C(O)c2ccc(OCCCCC)cc2)CN2CCCCCC2)cc1 (centres unmarked) [TCMDC-124174] | 5.67 | 1.2 µM | 6800 nM | 768 nM | 
5 | Oc1c(CN2CCC(Cc3ccccc3)CC2)cc(Cl)c2cccnc12 [TCMDC-124594] | 16 | 0.6 µM | 9600 nM | 881 nM | 
6 | COc1ccc(C[C@H]2NC[C@H](O)[C@H]2OC(C)=O)cc1 [TCMDC-125504] | 1.1 | 0.17 µM | 190 nM | 138 nM | 0.173 µM
7 | COc1ccc(CCNCCCCCCNCCc2ccc(-c3ccccc3)cc2)cc1OC [TCMDC-131267] | 19 | 0.17 µM | 3250 nM | 958 nM | 0.173 µM
8 | COc1ccc(CCNCCCCCCNCCc2ccc(Cl)c3ccccc23)cc1OC [TCMDC-131270] | 25 | 0.13 µM | 3230 nM | 580 nM | 0.127 µM
9 | COc1ccc(CCNCCCCCCNCCc2ccc(Cl)cc2)c(Cl)c1OC [TCMDC-131272] | 24 | 0.26 µM | 6200 nM | 825 nM | 0.257 µM
10 | CCCCc1ccc(CCNCCCCCCNCCc2ccc(O)c(O)c2)cc1 [TCMDC-131281] | 15 | 0.54 µM | 8190 nM | 1070 nM | 0.545 µM
11 | COc1cccc(CCNCCCCCCNCCc2ccc(Cl)cc2)c1 [TCMDC-131284] | 12 | 0.53 µM | 6100 nM | 1010 nM | 
12 | CCN=C1NC2=C(CC(C(C)(C)C)CC2)C2(CCC(C(C)(C)C)CC2)S1 (centres unmarked) [TCMDC-131288] | 5 | 3 µM | 14300 nM | 834 nM | 
13 | CCC(CSC1CCCCC1)N(C)CCN(C)C(CC)CSC1CCCCC1 (centres unmarked) [TCMDC-131456] | 0.621 | 1.4 µM | 870 nM | 314 nM | 
14 | C[C@H](Cc1ccc(CCc2ccc(C[C@@H](C)NC[C@H](O)c3cccc(Cl)c3)cc2)cc1)NC[C@H](O)c1cccc(Cl)c1 [TCMDC-131551] | 12 | 0.27 µM | 3100 nM | 935 nM | 0.267 µM
15 | C[C@H](Cc1ccc(Oc2ccc(C[C@@H](C)NC[C@H](O)c3cccc(Cl)c3)cc2)cc1)NC[C@H](O)c1cccc(Cl)c1 [TCMDC-131560] | 7 | 0.27 µM | 1910 nM | 560 nM | 
16 | CCN(CC)/C(=N/C(=N)Nc1ccc(Cl)c(Cl)c1)NCCCCCCN/C(=N\C(=N)Nc1ccc(Cl)c(Cl)c1)N(CC)CC [TCMDC-131808] | >7 | 3.44 µM | > 25000 nM | 761 nM | 3.44 µM
17 | Nc1c2ccccc2nc2ccc(-c3ccccc3)cc12 [TCMDC-132030] | 7 | 0.49 µM | 3300 nM | 140 nM | 0.485 µM

Row | SMILES | Ratio IC50 HepG2/IC50 P. falciparum [1] | IC50 [1, 3] | IC50 (HepG2 cells) | IC50 [2] | IC50 [1, 4]
18 | CCc1c(CCNCCCCCCNCCc2ccc(Br)cc2)ccc(OC)c1OC [TCMDC-132045] | 15 | 0.22 µM | 3200 nM | 232 nM | 0.215 µM
19 | CCc1c(CCNCCCCCCNCCc2ccc(OC)c(OC)c2C)ccc(OC)c1OC [TCMDC-132051] | 10 | 0.77 µM | 7750 nM | 1570 nM | 
20 | CCc1c(CCNCCCCCCNC(C)Cc2ccc3c(c2CC)OCO3)ccc(OC)c1OC (centres unmarked) [TCMDC-132052] | 10 | 0.33 µM | 3100 nM | 870 nM | 0.325 µM
21 | CCc1c(CCNCCCCCCNC(C)(C)Cc2ccc3c(c2CC)OCO3)ccc(OC)c1OC [TCMDC-132055] | 16 | 0.27 µM | 4370 nM | 934 nM | 0.266 µM
22 | CCc1c(CCNCCc2cccc(CCNCCc3ccc(OC)c(OC)c3CC)c2)ccc(OC)c1OC [TCMDC-132056] | 7.47 | 0.55 µM | 4110 nM | 361 nM | 
23 | CCc1c(CCNCCCC(C)CCNCCc2ccc(OC)c(OC)c2CC)ccc(OC)c1OC (centres unmarked) [TCMDC-132065] | 13 | 0.45 µM | 6000 nM | 1110 nM | 0.453 µM
24 | Nc1c(Cl)cc(C(O)CNCCCCCOCCCc2ccc(O)c3ncccc23)cc1Cl.O=C(O)/C=C/C(=O)O (centres unmarked) [TCMDC-132088] | 10 | 0.45 µM | 4510 nM | 992 nM | 0.455 µM
25 | COc1cccc(CCc2c(CCNCCCCCCNCCc3ccccc3)ccc(OC)c2OC)c1 [TCMDC-132105] | 44 | 0.18 µM | 7700 nM | 721 nM | 0.177 µM
26 | O=S(=O)(NCCN1CCCC1)c1cccc(-c2ccc(CNC3Cc4ccccc4C3)cc2)c1 [TCMDC-132241] | 3.72 | 2.15 µM | 8000 nM | 660 nM | 
27 | O=S(=O)(NCCN1CCCC1)c1cccc(-c2ccc(CNCc3ccc(F)cc3)cc2)c1 [TCMDC-132289] | 2.75 | 2.69 µM | 7400 nM | 234 nM | 
28 | CN1CCN(c2nsc3ccc(-c4ccc(NC(=O)Nc5cc(C(F)(F)F)ccc5F)cc4)cc23)CC1 [TCMDC-133435] | 0.851 | 7.52 µM | 6400 nM | 245 nM | 
29 | O=C(Nc1ccc(Cl)c(Cl)c1)Nc1ccccc1N1CCNCC1 [TCMDC-133727] | 1.51 | 7.42 µM | 11200 nM | 709 nM | 
30 | CN1CCCc2cc(NC(=O)C=Cc3ccc(-c4ccc(F)cc4F)o3)ccc2C1 [TCMDC-134051] | <1 | > 10 µM | 13400 nM | 783 nM | 
31 | CCCCOc1ccc(CNCCCCCCNCc2ccc(OCCCC)c3ccccc23)c2ccccc12 [TCMDC-137281] |  |  | 3040 nM and 2800 nM | 1130 nM | 
32 | CCCCCOc1ccc(C(=NC)N(CCCCC)CCCCC)c2ccccc12 [TCMDC-137703] | 7 | 0.89 µM | 6300 nM |  | 0.885 µM
33 | C=CC(C)C1OC(=O)c2cc(OC)cc(OC)c21 (centres unmarked) [TCMDC-138676] | 2 | 0.4 µM | 800 nM |  | 
